# Values joined by “and” are separate entries in the source; they are usually repeats but may differ in a detail not shown here. Equal values may be shown once.
# System: 377384-186-R-J1-PDC complex spheroid viability
# Test: Anticancer human tumor 377384-186-R-J1-PDC patient-derived pancreatic carcinoma cell line growth inhibition [CLK]
# Settings: for viability, T/C: stronger effect = lower value
# Text: A high-throughput screen of multi-cell type tumor spheroids was designed to identify active combinations of […] and targeted small molecules. Complex spheroids include a stromal component modeled by human endothelial cells (HUVEC) and fibroblasts modeled by human mesenchymal stem cells (MSCs). The concentration ranges selected for each drug and investigational agent were based upon clinically achievable concentrations if the clinical Cmax of the agent was known.
# Compounds. The drugs and investigational agents: cirtuvivint (SM08502; NSC835563), CC-671 (NSC850746), vemurafenib (NSC761431), tapotoclax (NSC804041), sotorasib (NSC818433), adagrasib (NSC831453), MRTX-1133 (NSC836407), BAY2416964 (NSC825713), copanlisib (NSC816437), inavolisib (NSC800729), abemaciclib (NSC768073), osimertinib (NSC779217), entinostat (NSC756642), eltanexor (KPT-8602, NSC794443), venetoclax (NSC766270), ceralasertib (NSC777638), bortezomib (NSC756655), olaparib (NSC753686), talazoparib (NSC767125), alisertib (NSC759677), peposertib (NSC802822), gemcitabine (NSC613327), 5-fluorouracil (NSC19893), SN-38 (NSC673596), oxaliplatin (NSC266046), paclitaxel (NSC125973), and doxorubicin (NSC123127), were obtained from the National Cancer Institute (NCI) Developmental Therapeutics Program Chemical Repository. The FDA-approved anticancer drug set is available from the Developmental Therapeutics Program at https://dtp.cancer.gov/organization/dscb/obtaining/available plates.htm. […] The stock solutions were prepared in dimethyl sulfoxide (DMSO, Sigma-Aldrich, St. Louis, MO, cat. D2650), except for the platinum complexes which were prepared in saline (Quality Biological, Gaithersburg, MD, cat. 114-055-101), at 800-fold the tested concentration and stored at -70 degrees C prior to their use. All drugs and investigational agents were tested over a range starting from a high concentration at or near the clinical Cmax and decreasing in half-log increments. If the clinical Cmax for an agent had not been determined, the highest concentration tested was 10 microM.
# Cell Culture. All cells were maintained in an incubator at 37 degrees C and 5% CO2 with 95% humidity. The PDC lines were cultured according to standard operating procedures established by the NCI PDMR. Briefly, all PDCs were thawed and cultured in Matrigel-coated flasks prepared with a working solution of 1X Ham's F-12 nutrient mix, without supplementation (Invitrogen, Waltham, MA, cat. 11765054), 100 U/mL penicillin-streptomycin (Invitrogen, cat. 15140122), and 2.5% Matrigel (Corning Inc., Corning, NY, cat. 354248) for the first three passages. The 947758-054-R-J2-PDC line was cultured in 6B/Colon 1A media, which includes advanced DMEM/F-12 (Thermo Fisher Scientific, cat. 12634028), 10 mM HEPES (Thermo Fisher Scientific, cat. 15630080), 1X GlutaMAX supplement (Thermo Fisher Scientific, cat. 35050061), 0.1 mg/mL primocin (InvivoGen, cat. ant-pm-2), 10% defined fetal bovine serum, heat inactivated (HyClone Laboratories Inc., cat. SH30070.03HI), 1.25 mM N-Acetyl-L-cysteine (Sigma-Aldrich, cat. A9165), 10 mM nicotinamide (Sigma-Aldrich, cat. N0636), 1X B-27 supplement (Thermo Fisher Scientific, cat. 17504044), 1X N-2 supplement (Thermo Fisher Scientific, cat. 17502048), and 10 microM Y-27632 dihydrochloride (Tocris Bioscience, cat. 1254). The 876862-298-R-J1-PDC was cultured in 6E media, which includes all 6B/Colon 1A media components plus 50% L-WRN conditioned media (ATCC, cat. CRL-3276), 50 ng/mL recombinant human EGF recombinant protein (hEGF; Thermo Fisher Scientific, cat. PHG0311), 10 ng/mL recombinant human fibroblast growth factor 10 (hGFG-10; PeproTech, cat. 100-26), 1 ng/mL recombinant human fibroblast growth factor 2 (hFGF-2; PeproTech, cat. 100-18B), and 1 µM prostaglandin E2 (PGE2; Tocris, cat. 2296). The 227483-062-R1-J1-PDC line was cultured in Panc media, containing all 6E components except hFGF-2, with the addition of 500 nM SB-431542 (Selleckchem, cat. S1067) and 10 nM gastrin (Tocris, cat. 3006). […]
# 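Note: spheroids exposed to agents for 7 days before reading.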
# 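Throughout, for viability, T/C: luminescence signal used as a stand-in for viable cells.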
structure (smiles),measurement,setting,value
CNC(=O)c1ccc(Nc2nc(OC3CCCC3)c3c(-c4ccc5nc(C)oc5c4)c[nH]c3n2)c(OC)c1,"viability, T/C",compound 0.0316 µM,102% [middle of 12 runs]
same,"viability, T/C",compound 0.1 µM,57.2% [middle of 12 runs]
same,"viability, T/C",compound 0.316 µM,20.9% [middle of 12 runs]
same,"viability, T/C",compound 1 µM,20.4% [middle of 12 runs]
same,"viability, T/C",compound 3.16 µM,21% [middle of 12 runs]
same,"viability, T/C",compound 10 µM,21.6% [middle of 12 runs]
same,IC50,"compound alone, run of 08/01/2023",130 nM [middle of 11 runs]
CC1COCCN1c1cc(C2(S(C)(=N)=O)CC2)nc(-c2ccnc3[nH]ccc23)n1 (stereo not drawn),"viability, T/C",compound 0.0316 µM,85.7% and 90.6%
same,"viability, T/C",compound 0.1 µM,108% and 109%
same,"viability, T/C",compound 0.316 µM,83.9% and 91.1%
same,"viability, T/C",compound 1 µM,82.9% and 74.7%
same,"viability, T/C",compound 3.16 µM,44% and 35.3%
same,"viability, T/C",compound 10 µM,17.6% and 14.9%
same,IC50,curve of compound,2.66 µM and 2.05 µM
O=c1[nH]cc(F)c(=O)[nH]1 + CNC(=O)c1ccc(Nc2nc(OC3CCCC3)c3c(-c4ccc5nc(C)oc5c4)c[nH]c3n2)c(OC)c1,IC50,"curve of first compound, second compound 0.0316 µM",3.65 µM
same,IC50,"curve of first compound, second compound 0.1 µM",0.0464 µM
same,IC50,"curve of first compound, second compound 0.316 µM",< 0.0316 µM
same,IC50,"curve of first compound, second compound 1 µM",< 0.0316 µM
same,IC50,"curve of first compound, second compound 3.16 µM",< 0.0316 µM
same,IC50,"curve of first compound, second compound 10 µM",< 0.0316 µM
same,"viability, T/C","second compound 0.0316 µM, first compound 0.0316 µM",98%
same,"viability, T/C","second compound 0.0316 µM, first compound 0.1 µM",98.3%
same,"viability, T/C","second compound 0.0316 µM, first compound 0.316 µM",96%
same,"viability, T/C","second compound 0.0316 µM, first compound 1 µM",82.1%
same,"viability, T/C","second compound 0.0316 µM, first compound 3.16 µM",50.3%
same,"viability, T/C","second compound 0.0316 µM, first compound 10 µM",46.3%
same,"viability, T/C","second compound 0.1 µM, first compound 0.0316 µM",49.6%
same,"viability, T/C","second compound 0.1 µM, first compound 0.1 µM",50.9%
same,"viability, T/C","second compound 0.1 µM, first compound 0.316 µM",45.4%
same,"viability, T/C","second compound 0.1 µM, first compound 1 µM",54.5%
same,"viability, T/C","second compound 0.1 µM, first compound 3.16 µM",41.6%
same,"viability, T/C","second compound 0.1 µM, first compound 10 µM",43.5%
same,"viability, T/C","second compound 0.316 µM, first compound 0.0316 µM",20.4%
same,"viability, T/C","second compound 0.316 µM, first compound 0.1 µM",20.3%
same,"viability, T/C","second compound 0.316 µM, first compound 0.316 µM",16.7%
same,"viability, T/C","second compound 0.316 µM, first compound 1 µM",16.4%
same,"viability, T/C","second compound 0.316 µM, first compound 3.16 µM",14.5%
same,"viability, T/C","second compound 0.316 µM, first compound 10 µM",14%
same,"viability, T/C","second compound 1 µM, first compound 0.0316 µM",22%
same,"viability, T/C","second compound 1 µM, first compound 0.1 µM",17.8%
same,"viability, T/C","second compound 1 µM, first compound 0.316 µM",19.2%
same,"viability, T/C","second compound 1 µM, first compound 1 µM",14.9%
same,"viability, T/C","second compound 1 µM, first compound 3.16 µM",13.2%
same,"viability, T/C","second compound 1 µM, first compound 10 µM",10.7%
same,"viability, T/C","second compound 3.16 µM, first compound 0.0316 µM",20.2%
same,"viability, T/C","second compound 3.16 µM, first compound 0.1 µM",19.7%
same,"viability, T/C","second compound 3.16 µM, first compound 0.316 µM",17.6%
same,"viability, T/C","second compound 3.16 µM, first compound 1 µM",16.7%
same,"viability, T/C","second compound 3.16 µM, first compound 3.16 µM",12.6%
same,"viability, T/C","second compound 3.16 µM, first compound 10 µM",9.93%
same,"viability, T/C","second compound 10 µM, first compound 0.0316 µM",16.8%
same,"viability, T/C","second compound 10 µM, first compound 0.1 µM",17.2%
same,"viability, T/C","second compound 10 µM, first compound 0.316 µM",17.1%
same,"viability, T/C","second compound 10 µM, first compound 1 µM",16%
same,"viability, T/C","second compound 10 µM, first compound 3.16 µM",10.8%
same,"viability, T/C","second compound 10 µM, first compound 10 µM",11.4%
C=CC(=O)N1CCN(c2nc(=O)n(-c3c(C)ccnc3C(C)C)c3nc(-c4c(O)cccc4F)c(F)cc23)C(C)C1 (stereo not drawn),"viability, T/C",compound 0.0316 µM,108% and 87.8%
same,"viability, T/C",compound 0.1 µM,83.9% and 127%
same,"viability, T/C",compound 0.316 µM,100% and 101%
same,"viability, T/C",compound 1 µM,119% and 105%
same,"viability, T/C",compound 3.16 µM,110% and 117%
same,"viability, T/C",compound 10 µM,84.3% and 90.5%
same,IC50,curve of compound,> 10 µM

# From PubChem BioAssay AID2060616 (Molecular Pharmacology Branch, DTP, NCI, 2025)
